Experimental data published in PubChem BioAssay (NCI).
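Grown in 96-well plates, cells were treated for 48 hours with each compound at five concentrations. Insufficient inhibition: endpoint recorded as highest concentration tested. GI50 marks 50% less growth. TGI: total growth inhibition.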

Legend:
Assay in all cases: NCI tumour cell line growth inhibition, 48 h
[1] = tested on: NCI-H226 lung
[2] = tested on: NCI-H460 lung
[3] = tested on: NCI-H522 lung
[4] = tested on: NCI/ADR-RES ovarian
[5] = tested on: OVCAR-3 ovarian
[6] = tested on: OVCAR-4 ovarian
[7] = tested on: OVCAR-5 ovarian
[8] = tested on: OVCAR-8 ovarian
[9] = tested on: PC-3 prostate
[10] = tested on: RPMI-8226 leukemia
[11] = tested on: RXF 393 renal
[12] = tested on: SF-268 CNS
[13] = tested on: SF-295 CNS
[14] = tested on: SF-539 CNS
[15] = tested on: SK-MEL-2 melanoma
[16] = tested on: SK-MEL-28 melanoma
[17] = tested on: SK-MEL-5 melanoma
[18] = tested on: SK-OV-3 ovarian
[19] = tested on: SN12C renal
[20] = tested on: SNB-19 CNS
[21] = tested on: SNB-75 CNS
[22] = tested on: SR leukemia
[23] = tested on: SW-620 colon
[24] = tested on: T-47D breast
[25] = tested on: TK-10 renal
[26] = tested on: U251 CNS
[27] = tested on: UACC-257 melanoma
[28] = tested on: UACC-62 melanoma
[29] = tested on: UO-31 renal

CS(=O)(=O)c1nccc(-c2c(-c3ccc(F)c(OCc4ccc(F)cc4)c3)nc3sccn23)n1
TGI [1]: > 100 µM | GI50 [2]: 13.5 µM | TGI [2]: 27.4 µM | GI50 [3]: 13.4 µM | TGI [3]: 30.3 µM | GI50 [4]: 18 µM | TGI [4]: 38.7 µM | GI50 [5]: 13.1 µM | TGI [5]: 25.8 µM | GI50 [6]: 17.8 µM | TGI [6]: 44.6 µM | GI50 [7]: 67.6 µM | TGI [7]: > 100 µM | GI50 [8]: 15 µM | TGI [8]: 28.3 µM | GI50 [9]: 17.2 µM | TGI [9]: 34.9 µM | GI50 [10]: 20 µM | TGI [10]: 54.7 µM | GI50 [11]: 14.3 µM | TGI [11]: 29.2 µM | GI50 [12]: 15.9 µM | TGI [12]: 32.8 µM | GI50 [13]: 23 µM | TGI [13]: 52 µM | GI50 [14]: 17.8 µM | TGI [14]: 36.7 µM | GI50 [15]: 15.2 µM | TGI [15]: 29.6 µM | GI50 [16]: 16.1 µM | TGI [16]: 29.8 µM | GI50 [17]: 17.4 µM | TGI [17]: 33.1 µM | GI50 [18]: 93.6 µM | TGI [18]: > 100 µM | GI50 [19]: 23.7 µM | TGI [19]: > 100 µM | GI50 [20]: 16 µM | TGI [20]: 30 µM | GI50 [21]: 16.4 µM | TGI [21]: > 100 µM | GI50 [22]: 13.1 µM | TGI [22]: 60.8 µM | GI50 [23]: 16.1 µM | TGI [23]: 31.8 µM | GI50 [24]: 11.1 µM | TGI [24]: 26.2 µM | GI50 [25]: 22.1 µM | TGI [25]: 66.3 µM | GI50 [26]: 17.8 µM | TGI [26]: 37.9 µM | GI50 [27]: 14.5 µM | TGI [27]: 28.4 µM | GI50 [28]: 16.3 µM | TGI [28]: 34.2 µM | GI50 [29]: 15.1 µM | TGI [29]: 36.3 µM
